Measured values published in patent US10040791B2, “Isoxazole derivative as mutant isocitrate dehydrogenase 1 inhibitor” (Daiichi Sankyo Company, Limited, priority 2014, dated 2018).
Counter-ions that a name gives are not always drawn.

Columns and labels:
IDH1R132C = IDH1R132C (Homo sapiens (Human), UniProt O75874, R132C); assay: Inhibitory activity against IDH1R132C enzyme (NADPH detection, WST-8); type: biochemical; details: 10 nM, residual NADPH detected with WST-8, read-out: Test Example 1 IDH1 R132C IC50
Description: After transformation of Rosetta 2 (DE3) E. coli, the expression of the protein was induced with IPTG.
While NADPH-derived fluorescence was occasionally monitored, the reaction was terminated by the addition of 5 μL of 0.5 M EDTA before consumption of NADPH. 5 μL of WST-8 reagent (Dojindo Laboratories, #CK04) was further added and mixed therewith. 15 minutes later, the absorbance at 450 nm was measured using a plate reader (PerkinElmer, Inc., EnVision). The observed absorbance value reflects the amount of residual NADPH. From the absorbance data, the enzyme inhibitory activity of each compound at each concentration was calculated and analyzed using medical statistical analysis software GraphPad Prism to calculate an IC50 value.

[1] = tested on: HT-1080 cells expressing IDH1R132C; assay: 2-HG production inhibitory activity using HT1080 cell; type: cell-based, human; details: Homo sapiens, HT-1080; 2-HG production, HT1080 cells; read-out: Test Example 3 IC50
Description: Then, 100 μL of growth medium B was added to each well, further 25 μL of a solution of each compound diluted to a predetermined concentration with growth medium B was added to each well, and the cells were incubated at 37° C. for 2 days under 5% CO2. […] Then, 150 μL of ultrapure water was further added to each well, and the mixture was stirred by pipetting and stored at −20° C.
The preserved solutions were thawed at room temperature.

[2] = tested on: HT1080 xenografted mice (IDH1R132C); assay: 2-HG production inhibitory activity using HT1080 xenografted mice; type: in vivo, mouse; details: 2-HG production, HT1080 xenografted mice; for response vs control in vivo at 75 mg/kg: Mus musculus, HT-1080, po, 6 h, read-out: Test Example 5 Ratio (%)
Description: HT1080 xenografted mice having successfully engrafted tumors were given by oral gavage each compound at 75 mg/kg a total of three times twice a day. The compound was suspended in a vehicle solution at 7.5 mg/mL using a homogenizer. Then, the suspension was stored at −20° C., thawed immediately before the administration, and given to mice. A negative control group for the test was given a vehicle by oral gavage. The body weights of the mice were measured using an automatic balance for small animals. The dosing solution was administered at a dose of 10 mL/kg body weight.
6 hours after the final administration, each mouse was euthanized with carbon dioxide. A portion of a tumor was collected, and its weight was measured using an electronic balance. Then, the tumor was frozen on dry ice. To the frozen tumor, methanol was added in an amount of 14 times the tumor weight. The resulting tumor was homogenized with Beads shocker (Yasui Kikai Corp.) and then incubated for 15 minutes in a freezer at −20° C. After centrifugation at 15000 rpm at 4° C. for 15 minutes using a high-speed refrigerated microcentrifuge, 250 μL of methanol and 400 μL of ultrapure water were added to 150 μL of the obtained supernatant. The prepared samples were subjected to 2-HG measurement.

Sequence of IDH1R132C (O75874 whole entry R132C): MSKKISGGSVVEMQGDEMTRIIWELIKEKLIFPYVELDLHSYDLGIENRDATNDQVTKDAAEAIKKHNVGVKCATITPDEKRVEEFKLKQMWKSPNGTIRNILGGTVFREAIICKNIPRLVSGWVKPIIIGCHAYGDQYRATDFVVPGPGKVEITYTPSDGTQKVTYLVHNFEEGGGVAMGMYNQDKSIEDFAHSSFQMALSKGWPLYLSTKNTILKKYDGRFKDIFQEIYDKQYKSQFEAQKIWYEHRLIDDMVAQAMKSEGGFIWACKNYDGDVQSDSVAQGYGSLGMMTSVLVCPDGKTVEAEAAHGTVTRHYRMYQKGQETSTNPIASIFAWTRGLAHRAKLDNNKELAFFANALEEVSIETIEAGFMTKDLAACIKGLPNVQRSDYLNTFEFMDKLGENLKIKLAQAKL

IC50 (IDH1R132C)	IC50 [1]	SMILES	response vs control in vivo at 75 mg/kg [2]	Test Example 5 Ratio (%) [2]
144 nM	104 nM	C=CC(=O)N1CCN(c2onc(-c3c(Cl)cc(Cl)cc3Cl)c2C(=O)n2ccc3c(/C=C/C(=O)O)cccc32)C(C)C1 (stereo in doubt) [Example 146, (2E)-3-[1-({5-[(2R)-4-Acryloyl-2-methylpiperazin-1-yl]-3-(2,4,6-trichlorophenyl)-1,2-oxazol-4-yl}carbonyl)-1H-indol-4-yl]prop-2-enoic acid]	38%	–
56 nM	33 nM	CC1(c2onc(-c3c(Cl)cc(Cl)cc3Cl)c2C(=O)n2ccc3c(/C=C/C(=O)O)cccc32)COC1 [Example 1, (2E)-3-(1-{[5-(3-Methyloxetan-3-yl)-3-(2,4,6-trichlorophenyl)-1,2-oxazol-4-yl]carbonyl}-1H-indol-4-yl)prop-2-enoic acid]	21%	–
47 nM	18 nM	Cc1cn(C(=O)c2c(-c3c(Cl)cc(Cl)cc3Cl)noc2C2(C)COC2)c2cccc(/C=C/C(=O)O)c12 [Example 2, (2E)-3-(3-Methyl-1-{[5-(3-methyloxetan-3-yl)-3-(2,4,6-trichlorophenyl)-1,2-oxazol-4-yl]carbonyl}-1H-indol-4-yl)prop-2-enoic acid]	18%	–
64 nM	60 nM	COC1(c2onc(-c3c(Cl)cc(Cl)cc3Cl)c2C(=O)n2ccc3c(/C=C/C(=O)O)cccc32)COC1 [Example 3, (2E)-3-(1-{[5-(3-Methoxyoxetan-3-yl)-3-(2,4,6-trichlorophenyl)-1,2-oxazol-4-yl]carbonyl}-1H-indol-4-yl)prop-2-enoic acid]	42%	–
–	337 nM	Cc1cn(C(=O)c2c(-c3c(Cl)cc(Cl)cc3Cl)noc2C(F)(F)F)c2cccc(/C=C/C(=O)O)c12 [Example 61, (2E)-3-(3-Methyl-1-{[3-(2,4,6-trichlorophenyl)-5-(trifluoromethyl)-1,2-oxazol-4-yl]carbonyl}-1H-indol-4-yl)prop-2-enoic acid]	63%	–
–	281 nM	Cc1cn(C(=O)c2c(-c3ccc(Cl)cc3Cl)noc2C2(C)COC2)c2cccc(/C=C/C(=O)O)c12 [Example 78, (2E)-3-(1-{[3-(2,4-Dichlorophenyl)-5-(3-methyloxetan-3-yl)-1,2-oxazol-4-yl]carbonyl}-3-methyl-1H-indol-4-yl)prop-2-enoic acid]	50%	–
–	42 nM	Cc1cn(C(=O)c2c(-c3c(Cl)cc(Cl)cc3Cl)noc2C2(C#N)CCC2)c2cccc(/C=C/C(=O)O)c12 [Example 93, (2E)-3-(1-{[5-(1-Cyanocyclobutyl)-3-(2,4,6-trichlorophenyl)-1,2-oxazol-4-yl]carbonyl}-3-methyl-1H-indol-4-yl)prop-2-enoic acid]	119%	–
140 nM	335 nM	O=C(O)/C=C/c1cccc2c1ccn2C(=O)c1c(-c2c(Cl)cccc2Cl)noc1N1CCOCC1 [Example 136, (2E)-3-(1-{[3-(2,6-Dichlorophenyl)-5-(morpholin-4-yl)-1,2-oxazol-4-yl]carbonyl}-1H-indol-4-yl)prop-2-enoic acid]	–	–
189 nM	299 nM	C[C@@H]1CCC[C@H](C)N1c1onc(-c2c(Cl)cccc2Cl)c1C(=O)n1ccc2c(/C=C/C(=O)O)cccc21 [Example 137, (2E)-3-(1-{[3-(2,6-Dichlorophenyl)-5-(cis-2,6-dimethylpiperidin-1-yl)-1,2-oxazol-4-yl]carbonyl}-1H-indol-4-yl)prop-2-enoic acid]	–	–
88 nM	288 nM	CN(C)c1onc(-c2c(Cl)cc(Cl)cc2Cl)c1C(=O)n1ccc2c(/C=C/C(=O)O)cccc21 [Example 138]	–	–
130 nM	166 nM	C=CC(=O)N1CCN(c2onc(-c3c(Cl)cccc3Cl)c2C(=O)n2ccc3c(/C=C/C(=O)O)cccc32)C(C)(C)C1 [Example 153, (2E)-3-(1-{[5-(4-Acryloyl-2,2-dimethylpiperazin-1-yl)-3-(2,6-dichlorophenyl)-1,2-oxazol-4-yl]carbonyl}-1H-indol-4-yl)prop-2-enoic acid]	–	–
95 nM	253 nM	C=CC(=O)N1CC2(CC2)N(c2onc(-c3c(F)cccc3Cl)c2C(=O)n2cc(C)c3c(/C=C/C(=O)O)cccc32)C[C@H]1C [Example 162, (2E)-3-[1-({5-[(6R)7-Acryloyl-6-methyl-4,7-diazaspiro[2.5]oct-4-yl]-3-(2-chloro-6-fluorophenyl)-1,2-oxazol-4-yl}carbonyl)-3-methyl-1H-indol-4-yl]prop-2-enoic acid]	–	–
–	330 nM	Cn1cc(C(=O)c2c(-c3c(Cl)cc(Cl)cc3Cl)noc2C(C)(C)C)c2cccc(/C=C/C(=O)O)c21 [Example 164]	89%	–
81 nM	186 nM	Cn1cc(C(=O)c2c(-c3c(Cl)cc(Cl)cc3Cl)noc2C2(C)CC2)c2cccc(/C=C/C(=O)O)c21 [Example 165]	–	–
–	–	Cc1cn(C(=O)c2c(-c3c(Cl)cc(Cl)cc3Cl)noc2C(C)(C)F)c2cccc(/C=C/C(=O)O)c12 [Example 168, (2E)-3-(1-{[5-(2-Fluoropropan-2-yl)-3-(2,4,6-trichlorophenyl)-1,2-oxazol-4-yl]carbonyl}-3-methyl-1H-indol-4-yl)prop-2-enoic acid tert-butylamine salt]	13%	–
–	–	Cc1cn(C(=O)c2c(-c3c(F)cc(Cl)cc3Cl)noc2C(C)(C)F)c2cccc(/C=C/C(=O)O)c12 [Example 169, (2E)-3-(1-{[3-(2,4-Dichloro-6-fluorophenyl)-5-(2-fluoropropan-2-yl)-1,2-oxazol-4-yl]carbonyl}-3-methyl-1H-indol-4-yl)prop-2-enoic acid tert-butylamine salt]	–	17%
–	–	Cc1cn(C(=O)c2c(-c3c(F)cc(Cl)cc3F)noc2C(C)(C)F)c2cccc(/C=C/C(=O)O)c12 [Example 170, (2E)-3-(1-{[3-(4-Chloro-2,6-difluorophenyl)-5-(2-fluoropropan-2-yl)-1,2-oxazol-4-yl]carbonyl}-3-methyl-1H-indol-4-yl)prop-2-enoic acid tert-butylamine salt]	–	35%
–	–	Cc1cc(Cl)cc(C)c1-c1noc(C(C)(C)F)c1C(=O)n1cc(C)c2c(/C=C/C(=O)O)cccc21 [Example 171, (2E)-3-(1-{[3-(4-Chloro-2,6-dimethylphenyl)-5-(2-fluoropropan-2-yl)-1,2-oxazol-4-yl]carbonyl}-3-methyl-1H-indol-4-yl)prop-2-enoic acid tert-butylamine salt]	–	22%
–	–	Cc1cc(Cl)cc(Cl)c1-c1noc(C(C)(C)F)c1C(=O)n1cc(C)c2c(/C=C/C(=O)O)cccc21 [Example 172, (2E)-3-(1-{[3-(2,4-Dichloro-6-methylphenyl)-5-(2-fluoropropan-2-yl)-1,2-oxazol-4-yl]carbonyl}-3-methyl-1H-indol-4-yl)prop-2-enoic acid tert-butylamine salt]	–	8%
–	–	Cc1cn(C(=O)c2c(-c3ccc(Cl)cc3Cl)noc2C(C)(C)F)c2cccc(/C=C/C(=O)O)c12 [Example 173, (2E)-3-(1-{[3-(2,4-Dichlorophenyl)-5-(2-fluoropropan-2-yl)-1,2-oxazol-4-yl]carbonyl}-3-methyl-1H-indol-4-yl)prop-2-enoic acid tert-butylamine salt]	–	2%
